Biological target: T1, hT1R2/hT1R3 (Homo sapiens, UniProt Q7RTX0+Q8TE23)
T1 construct: expressed in transfected cells
T1 sequence (Q8TE23 20-839): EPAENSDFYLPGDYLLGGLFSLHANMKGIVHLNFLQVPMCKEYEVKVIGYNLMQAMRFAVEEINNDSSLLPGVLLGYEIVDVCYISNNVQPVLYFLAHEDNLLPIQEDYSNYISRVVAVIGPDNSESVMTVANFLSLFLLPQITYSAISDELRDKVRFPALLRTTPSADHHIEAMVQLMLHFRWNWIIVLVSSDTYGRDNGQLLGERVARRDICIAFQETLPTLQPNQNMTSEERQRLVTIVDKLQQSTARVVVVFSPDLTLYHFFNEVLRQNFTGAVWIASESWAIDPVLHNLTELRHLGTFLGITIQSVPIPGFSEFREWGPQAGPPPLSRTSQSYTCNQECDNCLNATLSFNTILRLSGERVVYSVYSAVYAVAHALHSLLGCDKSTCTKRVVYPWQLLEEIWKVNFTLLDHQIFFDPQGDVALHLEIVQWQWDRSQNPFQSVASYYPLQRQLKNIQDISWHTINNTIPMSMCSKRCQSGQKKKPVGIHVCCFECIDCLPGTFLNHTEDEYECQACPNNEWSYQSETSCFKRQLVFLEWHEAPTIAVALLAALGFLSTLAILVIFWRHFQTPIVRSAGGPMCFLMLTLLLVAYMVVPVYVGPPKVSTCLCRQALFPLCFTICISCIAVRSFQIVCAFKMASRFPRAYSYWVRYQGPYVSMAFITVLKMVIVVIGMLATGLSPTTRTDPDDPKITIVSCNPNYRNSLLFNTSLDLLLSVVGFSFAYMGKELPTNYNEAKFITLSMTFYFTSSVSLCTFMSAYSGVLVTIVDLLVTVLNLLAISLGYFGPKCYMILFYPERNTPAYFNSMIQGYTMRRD
T1 sequence (Q7RTX0 21-852): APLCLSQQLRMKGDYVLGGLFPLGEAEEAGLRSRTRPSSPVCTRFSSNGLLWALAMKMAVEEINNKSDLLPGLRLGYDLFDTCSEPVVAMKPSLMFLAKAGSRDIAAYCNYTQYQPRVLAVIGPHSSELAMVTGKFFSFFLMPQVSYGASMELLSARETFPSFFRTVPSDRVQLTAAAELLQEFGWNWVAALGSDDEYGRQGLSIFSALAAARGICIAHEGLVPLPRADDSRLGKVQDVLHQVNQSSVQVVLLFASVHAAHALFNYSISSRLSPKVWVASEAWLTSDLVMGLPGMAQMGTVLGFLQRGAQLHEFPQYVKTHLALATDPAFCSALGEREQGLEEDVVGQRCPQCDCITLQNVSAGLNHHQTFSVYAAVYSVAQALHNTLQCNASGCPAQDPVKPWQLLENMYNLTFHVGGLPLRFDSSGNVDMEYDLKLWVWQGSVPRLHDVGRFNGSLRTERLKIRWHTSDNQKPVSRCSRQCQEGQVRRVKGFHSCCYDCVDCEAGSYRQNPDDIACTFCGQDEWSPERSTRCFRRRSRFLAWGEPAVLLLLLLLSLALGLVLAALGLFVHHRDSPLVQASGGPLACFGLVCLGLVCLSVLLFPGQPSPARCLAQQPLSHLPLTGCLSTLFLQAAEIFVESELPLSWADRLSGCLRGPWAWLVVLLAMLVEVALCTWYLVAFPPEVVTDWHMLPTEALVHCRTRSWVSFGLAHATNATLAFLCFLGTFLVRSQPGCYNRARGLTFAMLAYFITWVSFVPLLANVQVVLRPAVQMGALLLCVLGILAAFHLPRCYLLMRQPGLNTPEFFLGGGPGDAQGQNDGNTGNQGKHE
Assay: Effect of anions, cations and osmotic pressure on cellular responses, cells in 10 mM Cl- buffer, hT1R2/hT1R3
Type: cell-based
Details: for cellular response to the salt alone: without agonist, cells in 10 mM Cl- buffer
Method: Cells were seeded in 96-well plates coated with ε-poly-L-lysine at approximately 70,000 cells per well. […] Fluorescence changes were monitored at 2 s intervals, as described above. […] Three independent experiments were conducted for each receptor, and representative results are shown as the mean ± SEM (n = 3 replicates). Statistical tests were conducted using KyPlot version 6.0 (KyensLab Inc., Tokyo, Japan). Statistical significance was set at p < 0.05.

For `O=C([O-])[C@H](O)[C@@H](O)[C@H](O)[C@H](O)CO.[Na+]` [Na-gluconate, sodium gluconate], the “cellular response to the salt alone” value was “neither NaCl nor Na-gluconate alone elicited cellular responses”.
In the case of `[Cl-].[Na+]` [NaCl], the “response intensity to sucralose on coapplication of the salt at higher concentrations” value (coapplied with 150 µM sucralose, above 60 mM final [Cl-]o or equivalent osmotic pressure) is reported as “decreased”, the “response intensity to sucralose on coapplication of the salt” value (coapplied with 150 µM sucralose, up to 60 mM [Cl-]o, compared to response at 10 mM [Cl-]o) is reported as “no significant difference” and the “cellular response to the salt alone” value is reported as “neither NaCl nor Na-gluconate alone elicited cellular responses”.
